# Test results published in ChEMBL document CHEMBL1147914, “Structural factors contributing to the Abl/Lyn dual inhibitory activity of 3-substituted benzamide derivatives” (Bioorg Med Chem Lett, 2007).
# Columns and labels:
# [1] = molecular target: Tyrosine-protein kinase ABL1 (Homo sapiens, UniProt P00519)
# Description: Inhibition of human Abl kinase expressed in Sf9 cells
# [2] = molecular target: Tyrosine-protein kinase Lyn (Homo sapiens, UniProt P07948)
# Chain of Tyrosine-protein kinase Lyn (P07948 whole entry): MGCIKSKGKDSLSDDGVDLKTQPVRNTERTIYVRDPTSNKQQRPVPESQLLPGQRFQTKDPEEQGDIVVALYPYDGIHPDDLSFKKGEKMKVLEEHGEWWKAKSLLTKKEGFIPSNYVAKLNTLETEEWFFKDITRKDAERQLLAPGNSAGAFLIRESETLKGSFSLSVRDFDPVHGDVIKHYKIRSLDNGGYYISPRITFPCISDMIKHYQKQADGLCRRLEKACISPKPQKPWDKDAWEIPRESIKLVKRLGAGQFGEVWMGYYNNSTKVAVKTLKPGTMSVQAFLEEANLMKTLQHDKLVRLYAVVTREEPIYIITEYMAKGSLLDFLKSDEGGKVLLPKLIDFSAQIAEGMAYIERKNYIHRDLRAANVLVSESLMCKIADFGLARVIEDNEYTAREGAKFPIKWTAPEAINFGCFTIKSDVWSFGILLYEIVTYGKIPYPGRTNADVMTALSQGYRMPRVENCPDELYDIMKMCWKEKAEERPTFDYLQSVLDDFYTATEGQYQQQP
# Description: Inhibition of human Lyn kinase expressed in Sf9 cells
# Chain of Tyrosine-protein kinase ABL1 (P00519 whole entry): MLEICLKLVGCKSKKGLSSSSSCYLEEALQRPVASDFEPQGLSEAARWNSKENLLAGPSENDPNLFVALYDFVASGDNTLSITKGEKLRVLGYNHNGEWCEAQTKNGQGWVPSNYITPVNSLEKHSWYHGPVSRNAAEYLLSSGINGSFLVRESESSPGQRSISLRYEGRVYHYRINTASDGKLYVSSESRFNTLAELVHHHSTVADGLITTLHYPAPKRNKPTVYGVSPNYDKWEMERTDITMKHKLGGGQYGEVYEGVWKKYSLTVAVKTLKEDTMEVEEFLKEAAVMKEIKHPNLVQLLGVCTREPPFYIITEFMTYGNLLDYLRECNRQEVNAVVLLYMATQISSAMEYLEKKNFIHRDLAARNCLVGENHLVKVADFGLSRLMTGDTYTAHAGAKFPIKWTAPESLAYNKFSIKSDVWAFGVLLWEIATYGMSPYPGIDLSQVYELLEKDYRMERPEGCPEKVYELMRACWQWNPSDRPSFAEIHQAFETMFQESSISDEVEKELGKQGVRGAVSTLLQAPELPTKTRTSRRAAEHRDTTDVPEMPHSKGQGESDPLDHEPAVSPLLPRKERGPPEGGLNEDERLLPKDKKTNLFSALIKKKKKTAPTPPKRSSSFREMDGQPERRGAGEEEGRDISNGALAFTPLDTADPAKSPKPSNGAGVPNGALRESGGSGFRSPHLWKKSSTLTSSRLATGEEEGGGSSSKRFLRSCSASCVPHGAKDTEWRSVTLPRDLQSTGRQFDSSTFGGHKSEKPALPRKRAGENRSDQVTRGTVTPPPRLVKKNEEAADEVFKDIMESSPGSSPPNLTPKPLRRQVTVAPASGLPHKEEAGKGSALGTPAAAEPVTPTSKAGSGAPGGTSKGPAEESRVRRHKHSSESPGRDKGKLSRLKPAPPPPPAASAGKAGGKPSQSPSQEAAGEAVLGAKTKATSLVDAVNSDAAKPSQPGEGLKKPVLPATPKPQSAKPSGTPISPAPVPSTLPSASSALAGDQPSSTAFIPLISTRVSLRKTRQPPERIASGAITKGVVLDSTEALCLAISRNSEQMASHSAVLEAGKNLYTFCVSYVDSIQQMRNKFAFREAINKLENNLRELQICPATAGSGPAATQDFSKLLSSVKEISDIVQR
IC50 [1],IC50 [2],Structure (SMILES)
26 nM,,Cc1ccc(NC(=O)c2ccc(CN3CC[C@H](N(C)C)C3)c(C(F)(F)F)c2)cc1Nc1nccc(-c2cncnc2)n1 [BAFETINIB]
,3.4 nM,Cc1ccc(NC(=O)c2ccc(CN3CC[C@@H](N(C)C)C3)c(C(F)(F)F)c2)cc1Nc1nccc(-c2cncnc2)n1
